Reference: patent publication US20230287044A1, “NOVEL ANTIBACTERIAL PEPTIDE AND USE THEREOF” (priority 2020, published 2023)
Values after ≈ are worked out from the molar mass of the structure shown. Square brackets hold non-standard residues; d marks the D form. Ends that are not written are not given here. Peptide text beside a SMILES is read from it. * marks the point of attachment. Decanoyl = CCCCCCCCCC(=O)*

Assays:
[1] = system: MRPA (P. aeruginosa) CCARM 2180; assay type: cell-based, Pseudomonas aeruginosa; conditions: CCARM 2180, 18 h
In short: (§1)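 Mid-log cultures grown in CAMHB and diluted to 1× 10^6 cfu/ml in PBS were mixed with an equal volume of peptide in CAMHB (80 µM to 0.63 µM twofold dilutions). MIC taken as the mean of three independent experiments.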

[2] = system: MRAB (A. baumannii) ATCC BAA 1605; assay type: cell-based, Acinetobacter baumannii; conditions: ATCC BAA 1605, 18 h
In short: as §1

[3] = system: MRSA (S. aureus) KCCM 40510; assay type: cell-based, Staphylococcus aureus; conditions: KCCM 40510, 18 h
In short: as §1

[4] = system: VRE (E. faecalis) ATCC 51575; assay type: cell-based, Enterococcus faecalis; conditions: ATCC 51575, 18 h
In short: as §1

Compound	MIC MRPA (P. aeruginosa) CCARM 2180 [1] [µM]	MIC MRAB (A. baumannii) ATCC BAA 1605 [2] [µM]	MIC MRSA (S. aureus) KCCM 40510 [3] [µM]	MIC VRE (E. faecalis) ATCC 51575 [4] [µM]
CC(C)[C@@H](NC(=O)[C@@H](Cc1c[nH]cn1)NC(=O)[C@@H](CCCNC(=N)N)NC(=O)[C@@H](CCCNC(=N)N)NC(=O)[C@H](N)CCCNC(=N)N)C(=O)N[C@H](Cc1c[nH]cn1)C(=O)N[C@@H](C(=O)N[C@@H](C(=O)N[C@H](Cc1c[nH]c2ccccc12)C(=O)N[C@H](CCCCN)C(N)=O)C(C)C)C(C)C [KSH58, rrrhvhvvwk] (H-[dR][dR][dR][dH][dV][dH][dV][dV][dW][dK]-NH2; N-terminus assumed)	10 (≈ 13.7 µg/mL)	5 (≈ 6.86 µg/mL)	10 (≈ 13.7 µg/mL)	10 (≈ 13.7 µg/mL)
WVVWVYVRKKR-NH2 [LSH6]	40	2.5	10	10
CC(C)[C@@H](NC(=O)[C@@H](Cc1c[nH]c2ccccc12)NC(=O)[C@@H](CCCNC(=N)N)NC(=O)[C@H](N)CCCNC(=N)N)C(=O)N[C@H](Cc1c[nH]c2ccccc12)C(=O)N[C@@H](C(=O)N[C@@H](C(=O)N[C@H](Cc1c[nH]c2ccccc12)C(=O)N[C@H](CCCCN)C(N)=O)C(C)C)C(C)C [KSH56, rrwvwvvwk] (H-[dR][dR][dW][dV][dW][dV][dV][dW][dK]-NH2; N-terminus assumed)	5 (≈ 6.57 µg/mL)	1.25 (≈ 1.64 µg/mL)	1.25 (≈ 1.64 µg/mL)	1.25 (≈ 1.64 µg/mL)
CC[C@@H](C)[C@@H](NC(=O)[C@@H](Cc1c[nH]c2ccccc12)NC(=O)[C@@H](CCCNC(=N)N)NC(=O)[C@@H](CCCNC(=N)N)NC(=O)[C@H](N)CCCNC(=N)N)C(=O)N[C@H](Cc1c[nH]c2ccccc12)C(=O)N[C@@H](C(=O)N[C@H](CC(C)C)C(=O)N[C@H](Cc1c[nH]c2ccccc12)C(N)=O)C(C)C [KSH73, rrrwiwvlw] (H-[dR][dR][dR][dW][dI][dW][dV][dL][dW]-NH2; N-terminus assumed)	2.5 (≈ 3.42 µg/mL)	2.5 (≈ 3.42 µg/mL)	1.25 (≈ 1.71 µg/mL)	1.25 (≈ 1.71 µg/mL)
CC[C@@H](C)[C@@H](NC(=O)[C@@H](Cc1c[nH]c2ccccc12)NC(=O)[C@@H](C)NC(=O)[C@@H](C)NC(=O)[C@H](N)Cc1c[nH]c2ccccc12)C(=O)NCC(=O)N[C@H](CC(C)C)C(=O)N[C@H](CCCNC(=N)N)C(=O)N[C@H](CCCCN)C(=O)N[C@H](CCCNC(=N)N)C(=O)N[C@H](CCCCN)C(N)=O [KSH77, waawiglrkrk] (H-[dW][dA][dA][dW][dI]G[dL][dR][dK][dR][dK]-NH2; N-terminus assumed)	>10	2.5 (≈ 3.46 µg/mL)	>10	>10
WLAWLYLRKKR-NH2 [LSH8]	>40	5	20	20
CCCCCCCCCC(=O)NCCCC[C@@H](NC(=O)[C@@H](CCCCN)NC(=O)[C@@H](CCCNC(=N)N)NC(=O)[C@@H](CC(C)C)NC(=O)[C@@H](C)NC(=O)[C@H](NC(=O)[C@@H](Cc1c[nH]c2ccccc12)NC(=O)[C@@H](CC(C)C)NC(=O)[C@@H](CC(C)C)NC(=O)[C@H](N)Cc1c[nH]c2ccccc12)[C@H](C)CC)C(=O)N[C@H](CCCNC(=N)N)C(N)=O [KSH4, wllwialrkkr] (H-[dW][dL][dL][dW][dI][dA][dL][dR][dK][dK](Decanoyl)[dR]-NH2; N-terminus assumed)	>40	>40	5 (≈ 8.18 µg/mL)	5 (≈ 8.18 µg/mL)
CC(C)[C@@H](NC(=O)[C@H](N)Cc1c[nH]c2ccccc12)C(=O)N[C@H](C)C(=O)N[C@H](Cc1c[nH]c2ccccc12)C(=O)N[C@H](C)C(=O)N[C@@H](C(=O)N[C@H](Cc1c[nH]c2ccccc12)C(=O)N[C@H](CCCNC(=N)N)C(=O)N[C@H](CCCNC(=N)N)C(=O)N[C@H](CCCNC(=N)N)C(N)=O)C(C)C [KSH71, wvawavwrrr] (H-[dW][dV][dA][dW][dA][dV][dW][dR][dR][dR]-NH2; N-terminus assumed)	>10	1.25 (≈ 1.73 µg/mL)	5 (≈ 6.92 µg/mL)	2.5 (≈ 3.46 µg/mL)
CC(C)[C@@H](NC(=O)[C@@H](Cc1c[nH]c2ccccc12)NC(=O)[C@H](NC(=O)[C@H](NC(=O)[C@@H](Cc1c[nH]c2ccccc12)NC(=O)[C@@H](CCCNC(=N)N)NC(=O)[C@@H](CCCNC(=N)N)NC(=O)[C@H](N)CCCNC(=N)N)C(C)C)C(C)C)C(=O)N[C@@H](C(=O)N[C@H](Cc1c[nH]c2ccccc12)C(N)=O)C(C)C [KSH84, rrrwvvwvvw] (H-[dR][dR][dR][dW][dV][dV][dW][dV][dV][dW]-NH2; N-terminus assumed)	2.5 (≈ 3.6 µg/mL)	10 (≈ 14.4 µg/mL)	1.25 (≈ 1.8 µg/mL)	1.25 (≈ 1.8 µg/mL)
CCCCCCCCCC(=O)NCCCC[C@@H](NC(=O)[C@@H](CCCCN)NC(=O)[C@@H](CCCNC(=N)N)NC(=O)[C@@H](CC(C)C)NC(=O)[C@@H](C)NC(=O)[C@H](NC(=O)[C@@H](Cc1c[nH]c2ccccc12)NC(=O)[C@@H](CC(C)C)NC(=O)[C@@H](CC(C)C)NC(=O)[C@H](N)Cc1c[nH]c2ccccc12)[C@H](C)CC)C(N)=O [KSH7, wllwialrkk] (H-[dW][dL][dL][dW][dI][dA][dL][dR][dK][dK](Decanoyl)-NH2; N-terminus assumed)	>40	>40	10 (≈ 14.8 µg/mL)	10 (≈ 14.8 µg/mL)
CC(C)[C@@H](NC(=O)[C@@H](Cc1c[nH]c2ccccc12)NC(=O)[C@H](NC(=O)[C@H](NC(=O)[C@@H](Cc1c[nH]c2ccccc12)NC(=O)[C@@H](CCCNC(=N)N)NC(=O)[C@@H](CCCNC(=N)N)NC(=O)[C@H](N)CCCNC(=N)N)C(C)C)C(C)C)C(=O)N[C@H](Cc1c[nH]c2ccccc12)C(=O)N[C@H](Cc1c[nH]c2ccccc12)C(N)=O [KSH83, rrrwvvwvww] (H-[dR][dR][dR][dW][dV][dV][dW][dV][dW][dW]-NH2; N-terminus assumed)	5 (≈ 7.64 µg/mL)	10 (≈ 15.3 µg/mL)	1.25 (≈ 1.91 µg/mL)	1.25 (≈ 1.91 µg/mL)
